Drawing on ChEMBL document CHEMBL4819145, “Synthesis and evaluation of bifunctional PTP4A3 phosphatase inhibitors activating the ER stress pathway” (Bioorg Med Chem Lett, 2021), this text covers Activity, EC50 and inhibition for three compounds.

The test system of test [1] is MDA-MB-231. The test is described as follows: Induction of ER stress in human MDA-MB-231 cells assessed as increase in sXbp1 mRNA expression at 2 mM measured after 2 hrs by qPCR method. Type of test: functional, cell-based. A general note: In qPCR the cycle at which signal appears reflects the starting amount.
Test [2] deals with MDA-MB-231. Nature of the test: Induction of ER stress in human MDA-MB-231 cells assessed as increase in DDIT3 mRNA expression at 2 mM measured after 2 hrs by qPCR method. The class given is functional, cell-based.
Test [3] deals with MDA-MB-231. Nature of the test: Induction of ER stress in human MDA-MB-231 cells assessed as increase in HSPA5A mRNA expression at 2 mM measured after 2 hrs by qPCR method. Type of test: functional, cell-based.
Test [4] deals with MDA-MB-231. Nature of the test: Cytotoxicity against JMS-053-pretreated human MDA-MB-231 cells at 20 to 60 uM measured after 72 hrs by CellTiter-Glo assay. Type of test: functional, cell-based. The following applies: dose 20-60 µM. A general note: Cellular ATP, detected with luciferase, serves as a proxy for viable cell number.
Test [5] relates to MDA-MB-231. The test is described as follows: cells. As to conditions: Homo sapiens, MDA-MB-231, 72 h.
Test [6] concerns the target Dual specificity protein phosphatase 3 (Homo sapiens) (UniProt P51452). Nature of the test: Inhibition of DUSP3 (unknown origin) at 1 uM.
The target in test [7] is T1, Tyrosine-protein phosphatase non-receptor type 1 (Homo sapiens) (UniProt P18031).
T1 sequence (whole entry): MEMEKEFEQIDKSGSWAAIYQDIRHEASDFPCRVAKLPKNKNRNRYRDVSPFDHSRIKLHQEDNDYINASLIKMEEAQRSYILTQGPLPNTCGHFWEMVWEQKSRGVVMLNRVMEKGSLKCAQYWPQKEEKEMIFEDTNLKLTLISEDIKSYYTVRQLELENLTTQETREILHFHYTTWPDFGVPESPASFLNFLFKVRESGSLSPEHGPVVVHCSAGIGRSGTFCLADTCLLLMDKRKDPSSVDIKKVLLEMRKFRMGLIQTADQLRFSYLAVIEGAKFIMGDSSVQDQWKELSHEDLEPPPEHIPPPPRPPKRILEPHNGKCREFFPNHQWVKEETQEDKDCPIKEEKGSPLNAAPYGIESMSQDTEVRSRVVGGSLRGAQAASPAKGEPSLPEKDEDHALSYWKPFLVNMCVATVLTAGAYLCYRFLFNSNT
Nature of the test: Inhibition of PTP1B (unknown origin) at 1 uM.

Test [8] concerns MDA-MB-231. Nature of the test: Induction of ER stress in human MDA-MB-231 cells assessed as increase in DDIT3 mRNA expression at 2XEC50 measured after 6 hrs by qPCR method. Type of test: functional, cell-based.
For test [9], the target named is T2, M-phase inducer phosphatase 2 (Homo sapiens) (UniProt P30305).
T2 sequence (whole entry): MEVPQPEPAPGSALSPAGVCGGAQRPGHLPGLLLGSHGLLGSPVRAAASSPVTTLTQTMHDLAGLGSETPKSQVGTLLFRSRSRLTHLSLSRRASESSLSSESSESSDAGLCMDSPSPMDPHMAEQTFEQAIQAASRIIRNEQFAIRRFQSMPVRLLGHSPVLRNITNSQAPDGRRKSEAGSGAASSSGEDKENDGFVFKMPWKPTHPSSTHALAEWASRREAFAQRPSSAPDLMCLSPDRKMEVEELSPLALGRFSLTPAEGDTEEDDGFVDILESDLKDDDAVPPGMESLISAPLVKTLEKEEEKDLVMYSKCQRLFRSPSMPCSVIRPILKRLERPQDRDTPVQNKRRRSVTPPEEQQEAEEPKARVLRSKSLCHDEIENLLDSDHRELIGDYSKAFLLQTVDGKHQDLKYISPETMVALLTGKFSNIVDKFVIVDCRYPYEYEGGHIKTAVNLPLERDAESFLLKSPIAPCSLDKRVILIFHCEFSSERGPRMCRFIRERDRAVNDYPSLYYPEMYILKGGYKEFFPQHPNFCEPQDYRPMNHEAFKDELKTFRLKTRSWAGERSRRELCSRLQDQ
The test is described as follows: Inhibition of CDC25B (unknown origin) at 1 uM.

For test [10], the system named is MDA-MB-231. The test is described as follows: Induction of ER stress in human MDA-MB-231 cells assessed as increase in HSPA5A mRNA expression at 2XEC50 measured after 6 hrs by qPCR method. The class given is functional, cell-based.
Test [11] concerns MDA-MB-231. Nature of the test: Induction of ER stress in human MDA-MB-231 cells assessed as increase in sXbp1 mRNA expression at 2XEC50 measured after 6 hrs by qPCR method. Type of test: functional, cell-based.

Calls of active or inactive are those of the source. The calls are words filed in the database; no cut-off is given here. Some results are limits rather than exact numbers.

Sequence of Dual specificity protein phosphatase 3 (Homo sapiens) (P51452 whole entry, looked up): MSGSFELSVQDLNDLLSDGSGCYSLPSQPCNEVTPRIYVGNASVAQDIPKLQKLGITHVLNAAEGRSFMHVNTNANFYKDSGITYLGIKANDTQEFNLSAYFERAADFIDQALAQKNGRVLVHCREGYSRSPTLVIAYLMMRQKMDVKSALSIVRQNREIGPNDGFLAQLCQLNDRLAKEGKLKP

For `OC(CS)C(O)CS` (stereo unspecified), the result in test [1], in test [2] and in test [3] was Active.

The term EC50 denotes the concentration giving half of the maximal effect. On to `O=C(CC12CC3CC(CC(C3)C1)C2)NCCCCO`, for which the result in test [4] was inactive. The EC50 in test [5] was above 50 µM.

In general, inhibition refers to the relative decrease from the control value, in per cent. A lower inhibition goes with a weak effect. Consider `N=C1C(=O)NC(=O)c2cc(-c3ccc(OCCCCNC(=O)CC45CC6CC(CC(C6)C4)C5)cc3)sc21`, for which the inhibition in test [6], in test [7] and in [9] was below 11% each time. Besides, the outcome in test [8], in [10] and in [11] was Active.
